Experimental data as given in patent US20250345318A1, “COMPOUND AND USE THEREOF IN PREVENTING OR TREATING RADIATION DAMAGE” (SIMCERE PHARMACEUTICAL CO., LTD., priority 2022, published 2025).

What was measured:
C57BL/6 male mice = test: Body weight, spleen and thymus indexes and HE staining after total body irradiation (Example 3); assay type: in vivo
Description: C57BL/6 male mice (24.8±1,6 g in body weight) aged 10 weeks were divided into 4 groups of 8 mice each. After acclimating to the environment, JAC4 (100 mg/kg) or an equal volume of vehicle (polyethylene glycol:ethanol:physiological saline=47.5:7.5:50, v/v/v) was orally administered to the mice once daily for 7 consecutive days. After that, the mice in one JAC4 treatment group and one vehicle group were subjected to total body X-ray irradiation (6 Gy) and JAC4 or vehicle treatment was continued. After 3 days, the administration of JAC4 or vehicle was discontinued, and blood samples, small intestine tissues, and thymus and spleen tissues were collected 4 days later.
HE staining was performed on spleen tissues and thymus tissues from mice in all groups, with procedures as follows:
(1) Section deparaffinization: 1) xylene I treatment for 5 min; 2) xylene II treatment for 5 min; 3) xylene III treatment for 5 min; 4) 100% ethanol treatment for 5 min; 5) 100% ethanol II treatment for 5 min; 6) 95% ethanol treatment for 5 min; 7) 90% ethanol treatment for 5 min; 8) 85% ethanol treatment for 5 min; 9) 70% ethanol treatment for 5 min; 10) 60% ethanol treatment for 5 min.
(2) HE staining: After being rinsed with double-distilled water, the sections were stained with hematoxylin solution for 6 min, differentiated with 0.5% hydrochloric acid in alcohol for a short period, and then placed in double-distilled water for bluing. When the chromatin within the cell nuclei was clearly visible under a microscope, the sections were stained with 0.5% eosin for 30 s.

JWA^IEC-wt mice = test: X-ray-induced intestinal injury in JWA^IEC-wt mice (Example 12); assay type: in vivo; details: ABI 10 Gy
Text: The Model Animal Research Institute of Nanjing University was commissioned to conduct the construction of JWA^flox/+ A129 mice and embryo cryopreservation, preservation, and thawing. These mice were bred with wild-type C57/BL6 mice for over six generations to give mice of C57/BL6 background. Villin-cre mice, provided by Shanghai Model Organisms Center, Inc., were C57/BL6 mice. The JWA-knockout mice (JWA^ko) and their littermate control (JWA^wt) counterparts were derived from an in-house conservation breed. The JWA^flox/flox mice were bred from the JWA^flox/+ mice. The intestinal epithelial JWA-knockout mice (JWA^IEC-ko) and control group (JWA^IEC-wt) were obtained through breeding JWA^flex/flex mice with Villin-cre mice.
The off-target model was established using JWA^IEC-ko mice and their JWA^IEC-wt littermates (8 weeks old), and the mice receiving radiation were divided into 4 groups: (1) a JWA^IEC-wt mice+vehicle group (n=5); (2) a JWA^IEC-wt mice+JAC4 group (n=5); (3) a JWA^IEC-ko mice+vehicle group (n=6); (4) a JWA^IEC-ko mice+JAC4 group (n=5). All mice were subjected to abdominal irradiation at 10 Gy. 7 days before radiation, 10 mg/kg JAC4 or an equal volume of vehicle (polyethylene glycol:ethanol:physiological saline=40:7.5:52.5, v/v/v) was administered intragastrically daily until the end of modeling. The blank control group (wild type, n=6) was not irradiated, and the modeling was terminated on day 4 after radiation.
To verify whether the protective effect of JAC4 on X-ray radiation-induced intestinal damage in mice is dependent on the expression of JWA, the present disclosure verified the targeting effect of JAC4 using JWA^IEC-ko mice.
JWA^IEC-ko and JWA^IEC-wt mice were treated daily with JAC4 (10 mg/kg) or an equal volume of vehicle (polyethylene glycol:ethanol:physiological saline=47.5:7.5:50, v/v/v), respectively, from 7 days before the ABI (10 Gy) exposure to 4 days after the exposure. […] Meanwhile, the contents of TNF-α and IL-1β were consistent with the results of FD4. […] As shown in panels E and F, ABI increased the activity of GSH-Px (530.8±207.8 vs. 406.2±197.9 U/mL) and decreased the activity of CAT (89.4 f 0.4 vs. 68.7±14.2 U/mL). JAC4 further enhanced the antioxidant enzymes in JWA^IEC-wt mice (815.1±203.9 vs. 530.8±207.8 U/mL and 85.9±8.2 vs. 68.7±14.2 U/mL; P<0.05, P<0.05). […] Intestinal tissues were isolated, and the expression of apoptotic molecules was detected by Western blot (FIG. 16J). In wild-type mice, compared with the control group, X-rays increased the expression of Bax and cleaved PARP1 in the small intestine.

BEAS-2B cells = test: Plate colony formation, BEAS-2B (Example 22); assay type: cell-based, human
Description: The cell proliferation capacity was determined by a plate colony formation experiment, with the following specific procedures.
(§1) 1. SPCA-1 and BEAS-2B cells (or SPCA-1 and BEAS-2B cells transfected with JWA-knockdown plasmids) in the exponential growth phase were plated in 6-well plates at a specific amount. The number of plated cells is as follows
(§2) 2. After the cells adhered to the container wall, the cells were treated (or not treated) with […] JAC4 and treated with X-ray of 0, 2, 4, or 6 Gy. The medium was replaced with a fresh medium containing JAC4 at the corresponding concentration once every 2 days (or the cells were treated with X-ray of 0, 2, 4, or 6 Gy after adhesion, and the medium was replaced with a fresh medium once every 2 days).
(§3) 3. After the cells were cultured for 10-14 days, colonies were visually observed. The culture medium was discarded, and the cells were fixed with methanol for 10-20 min, stained with crystal violet for 10 min, slowly washed with flowing clear water thrice, photographed, and counted for colonies containing>50 cells.
4. The colony forming efficiency (CFE)=(number of colonies formed/number of seeded cells) 100% was calculated, and the cell survival fraction (SF)=(colony forming efficiency of treatment group/colony forming efficiency of 0 Gy group)×100% was calculated from the colony forming efficiency.

[1] = tested on: BEAS-2B cells transfected with JWA-knockdown plasmids; test: Colony formation of BEAS-2B cells transfected with JWA-knockdown plasmids (Example 22); assay type: cell-based, human; details: JAC4-treated JWA-knockdown BEAS-2B vs JAC4-treated si-Control
Description: as §1, §2, §3
4. The colony forming efficiency (CFE)=(number of colonies formed/number of seeded cells) 100% was calculated, and the cell survival fraction (SF)=(colony forming efficiency of treatment group/colony forming efficiency of 0 Gy group)×100% was calculated from the colony forming efficiency. […]

[2] = JAC4 100 mg/kg oral + TBI 6 Gy vs vehicle + radiation
[3] = non-radiation, JAC4 100 mg/kg oral
[4] = JWA^IEC-wt mice, JAC4 10 mg/kg daily

## c1ccc(CSc2nnc(C3COc4ccccc4O3)o2)nc1 (stereo not shown) [JAC4]
C57BL/6 male mice; JAC4 100 mg/kg oral + TBI 6 Gy
  spleen index: 1.31 ± 0.18 mg/g
  thymus index: 1.63 ± 0.24 mg/g
C57BL/6 male mice; [2]
  HE staining of spleen tissue after X-ray radiation: no significant difference between the vehicle control group and the JAC4 group
  HE staining of thymus tissue after X-ray radiation: no significant difference between the vehicle control group and the JAC4 group
C57BL/6 male mice; JAC4 100 mg/kg oral, TBI 6 Gy
  degree of body weight loss: significantly less than that in the control group
C57BL/6 male mice; [3]
  spleen index: 3.22 ± 0.26 mg/g
  thymus index: 2.51 ± 0.43 mg/g
JWA^IEC-wt mice; [4]
  plasma CAT activity: 85.9±8.2 U/mL
  plasma GSH-Px activity: 815.1±203.9 U/mL
  plasma IL-1β: 57.76 ± 5.9 ng/mL
  plasma TNF-α: 583.2 ± 78.2 ng/mL
JWA^IEC-wt mice; JWA^IEC-wt mice, JAC4 10 mg/kg daily, day 4
  plasma FD4 content: 6719.9 ± 1823.5 ng/mL
JWA^IEC-wt mice; wild-type mice, JAC4 10 mg/kg
  expression of Bax and cleaved PARP1 in small intestine (Western blot): downregulated
BEAS-2B cells; 10 μM JAC4 + X-ray vs X-ray monotherapy
  cell survival (radiosensitization curve): slightly increased
BEAS-2B cells; JAC4 in combination with X-ray
  number of colonies formed: increased
[1]
  cell survival rate (radiosensitization curve): significantly decreased
